Structure (SMILES): Nc1cccnn1
- solubility (mole fraction) (in acetone, 288.25 K): 0.0068
- solubility (mole fraction) (in acetone, 293.15 K): 0.00801
- solubility (mole fraction) (in acetone, 298.35 K): 0.00907
- solubility (mole fraction) (in acetone, 303.05 K): 0.0102
- solubility (mole fraction) (in acetone, 308.35 K): 0.012
- solubility (mole fraction) (in acetone, 313.25 K): 0.0133
- solubility (mole fraction) (in acetone, 317.85 K): 0.0148
- solubility (mole fraction) (in acetone, 323.35 K): 0.0169
- solubility (mole fraction) (in acetone, 328.05 K): 0.0187
- solubility (mole fraction) (in aniline, 288.05 K): 0.0231
- solubility (mole fraction) (in aniline, 293.25 K): 0.0289
- solubility (mole fraction) (in aniline, 298.35 K): 0.0347
- solubility (mole fraction) (in aniline, 302.95 K): 0.0419
- solubility (mole fraction) (in aniline, 308.45 K): 0.0487
- solubility (mole fraction) (in aniline, 313.15 K): 0.0559
- solubility (mole fraction) (in aniline, 318.15 K): 0.0623
- solubility (mole fraction) (in aniline, 323.45 K): 0.0693
- solubility (mole fraction) (in aniline, 328.15 K): 0.076
- solubility (mole fraction) (in aniline, 333.35 K): 0.0825
- solubility (mole fraction) (in ethanol, 288.35 K): 0.0193
- solubility (mole fraction) (in ethanol, 294.05 K): 0.0213
- solubility (mole fraction) (in ethanol, 298.75 K): 0.0237
- solubility (mole fraction) (in ethanol, 303.15 K): 0.0266
- solubility (mole fraction) (in ethanol, 308.25 K): 0.0306
- solubility (mole fraction) (in ethanol, 313.35 K): 0.0349
- solubility (mole fraction) (in ethanol, 318.35 K): 0.0409
- solubility (mole fraction) (in ethanol, 323.35 K): 0.0492
- solubility (mole fraction) (in ethanol, 328.35 K): 0.0602
- solubility (mole fraction) (in ethanol, 333.15 K): 0.0713
- solubility (mole fraction) (in ethyl acetate, 288.45 K): 0.00228
- solubility (mole fraction) (in ethyl acetate, 293.15 K): 0.00275
- solubility (mole fraction) (in ethyl acetate, 298.65 K): 0.00324
- solubility (mole fraction) (in ethyl acetate, 302.75 K): 0.00383
- solubility (mole fraction) (in ethyl acetate, 307.15 K): 0.00434
- solubility (mole fraction) (in ethyl acetate, 312.95 K): 0.00522
- solubility (mole fraction) (in ethyl acetate, 318.65 K): 0.00588
- solubility (mole fraction) (in ethyl acetate, 322.65 K): 0.00665
- solubility (mole fraction) (in ethyl acetate, 328.25 K): 0.00738
- solubility (mole fraction) (in ethyl acetate, 332.35 K): 0.00813
- solubility (mole fraction) (in isopropanol, 288.15 K): 0.0122
- solubility (mole fraction) (in isopropanol, 298.15 K): 0.0172
- solubility (mole fraction) (in isopropanol, 303.55 K): 0.0203
- solubility (mole fraction) (in isopropanol, 308.45 K): 0.0233
- solubility (mole fraction) (in isopropanol, 312.85 K): 0.0277
- solubility (mole fraction) (in isopropanol, 317.75 K): 0.0315
- solubility (mole fraction) (in isopropanol, 323.25 K): 0.0373
- solubility (mole fraction) (in isopropanol, 328.05 K): 0.0412
- solubility (mole fraction) (in isopropanol, 332.95 K): 0.0465
- solubility (mole fraction) (in methanol, 288.15 K): 0.0356
- solubility (mole fraction) (in methanol, 293.05 K): 0.0398
- solubility (mole fraction) (in methanol, 298.15 K): 0.0455
- solubility (mole fraction) (in methanol, 303.25 K): 0.052
- solubility (mole fraction) (in methanol, 308.15 K): 0.0596
- solubility (mole fraction) (in methanol, 313.15 K): 0.0675
- solubility (mole fraction) (in methanol, 318.25 K): 0.076
- solubility (mole fraction) (in methanol, 323.55 K): 0.0865
- solubility (mole fraction) (in methanol, 328.15 K): 0.0981
- solubility (mole fraction) (in n-butanol, 289.35 K): 0.0105
- solubility (mole fraction) (in n-butanol, 293.35 K): 0.0126
- solubility (mole fraction) (in n-butanol, 298.05 K): 0.017
- solubility (mole fraction) (in n-butanol, 303.15 K): 0.0218
- solubility (mole fraction) (in n-butanol, 308.15 K): 0.0267
- solubility (mole fraction) (in n-butanol, 313.15 K): 0.0324
- solubility (mole fraction) (in n-butanol, 318.05 K): 0.0371
- solubility (mole fraction) (in n-butanol, 322.65 K): 0.042
- solubility (mole fraction) (in n-butanol, 327.95 K): 0.0469
- solubility (mole fraction) (in n-butanol, 332.95 K): 0.0519
- solubility (mole fraction) (in n-propanol, 288.45 K): 0.0161
- solubility (mole fraction) (in n-propanol, 293.05 K): 0.0185
- solubility (mole fraction) (in n-propanol, 298.35 K): 0.022
- solubility (mole fraction) (in n-propanol, 302.85 K): 0.0255
- solubility (mole fraction) (in n-propanol, 308.15 K): 0.0293
- solubility (mole fraction) (in n-propanol, 313.05 K): 0.0351
- solubility (mole fraction) (in n-propanol, 318.35 K): 0.0401
- solubility (mole fraction) (in n-propanol, 322.95 K): 0.0461
- solubility (mole fraction) (in n-propanol, 327.95 K): 0.0519
- solubility (mole fraction) (in n-propanol, 333.15 K): 0.0602

From BigSolDB 2.1
